From US7691874B2, “Neuroprotective properties of dextrorotatory morphinans” (priority 2004, dated 2010)
Marks after values point to notes of the source that are not given here.

Columns and labels:
LPS-treated mice [1] = experiment: Striatal dopamine and metabolites in LPS-treated mice; type: in vivo; conditions: for Concentration DA in the striatum: 3 weeks after LPS
Excerpt: Control animals received striatal injection with PBS.
Mice were sacrificed at 3 weeks after LPS treatment.

LPS-treated mice [2] = experiment: Hypokinesia induced by intrastriatal LPS; conditions: 12 or 24 mg/kg, twice before bilateral intrastriatal LPS
MA-treated mice [3] = experiment: Hypokinesia induced by MA; type: in vivo; conditions: 12 and 24 mg/kg; 3 days after final MA
C57 BL/6 mice [4] = experiment: Conditioned place preference (psychological dependence) following repeated administration of morphinans or PCP; type: in vivo; conditions: 20 or 40 mg/kg i.p. (PCP 2.5 or 5 mg/kg); vs saline
Protocol: On day 14, the guillotine doors were raised. […] Data were analyzed between 0900 and 1700 hr.

cocaine-treated mice [5] = experiment: Cocaine-induced Fos-related antigen-immunoreactivity (FRA-IR) in the striatum; conditions: cocaine 5 mg/kg; morphinan 20 mg/kg i.p.
cocaine-treated mice [6] = experiment: Cocaine-induced hyperlocomotion; type: in vivo
Protocol: FIGS. 34A-34B show effect of morphinans on the cocaine-induced hyperactivity in the mice. Morphinans (15 and 30 mg/kg, i.p.) were administered 30 minutes prior to cocaine (5 and 20 mg/kg, i.p.). Central activity means relatively non-specific locomotor activity in the center of the box. Marginal activity means circling behaviors. All treatments were performed for 7 days.
FIGS. 35A-35D show effect of dimemorfan (DF) on cocaine-induced hyperactivity in the mice. DF (20 mg/kg, i.p.) was administered 30 minutes prior to cocaine (5 and 20 mg/kg, i.p.). All treatments were performed for 7 days.

MA-treated mice [7] = experiment: Striatal dopamine and metabolites in MA-treated mice; type: in vivo; conditions: for Concentration DA in the striatum: 3 days after final MA
Excerpt: Mice were sacrificed at 3 days after final MA injection.

MA-treated mice [8] = experiment: Nigral TH-IR in MA-treated mice; conditions: 24 mg/kg i.p.
C57 BL/6 mice [9] = experiment: Locomotor activity and locomotor pattern following repeated administration of morphinans or PCP; type: in vivo
MA-treated mice [10] = experiment: MA-induced hyperlocomotion; type: in vivo; conditions: morphinan 20 mg/kg i.p. 30 min before MA 1 mg/kg i.p./day x 7
Protocol: FIGS. 39A-39D show effect of morphinans on the MA-induced hyperactivity in the mice. Each morphinan (20 mg/kg, i.p.) was administered 30 minutes prior to MA (1 mg/kg, i.p.). All treatments were performed for 7 days.

MA-treated mice [11] = experiment: MA-induced FRA-IR in the striatum; conditions: morphinan 20 mg/kg i.p.; MA 1 mg/kg i.p./day x 7
Protocol: Therefore, brains were removed and used for immunocytochemical analysis at 18 h after the final cocaine/MA treatment. The coronal sections containing striatum were processed for FRA immunocytochemistry. […] The FRA antibody was used at 1:2,000 as the optimal dilution. The FRA-IR in the striatum was calculated using image analysis systems with a polaroid digital microscopic camera (Optimas version 6.2).

MPTP-treated mice [12] = experiment: Hypokinesia (reduction in locomotor activity) induced by MPTP; type: in vivo; conditions: 12 or 24 mg/kg i.p. 30 min before MPTP (20 mg/kg/day x 7), last three days
σ1 receptors = σ1 receptors (Homo sapiens, UniProt Q99720); conditions: cited from earlier work
MA-treated mice [13] = experiment: Methamphetamine (MA)-induced hyperthermia; type: in vivo; conditions: 24 mg/kg; MA 7.5 mg/kg i.p. x 4 at 2-h intervals
Protocol: Rectal temperature was recorded at 40 min after each MA treatment. […] Mice were sacrificed at 3 days after final MA injection.
FIGS. 10A-10B show effect of morphinans on the methamphetamine (MA)-induced hyperthermia. Mice received i.p. injections of MA (four injections of 7.5 mg/kg each) at 2-h intervals under the ambient temperature of 22.0±0.5° C. Temperatures were recorded at 40 min after each MA treatment (Arrow=MA injection).

[14] = system: NMDA receptor associated PCP sites; conditions: cited from earlier work
MPTP-treated mice [15] = experiment: Striatal dopamine and metabolites (HPLC-EC) in MPTP-treated mice; conditions: for Concentration DA in the striatum: mean ± S.E.M., 8 animals
MA-treated mice [16] = experiment: MA-induced behavioural sensitization; conditions: morphinan 20 mg/kg i.p., last 3 days of wash-out (Ex. 3.12)
Protocol: Morphinans (20 mg/kg, i.p.) were administered last 3 days of wash-out period.

[17] = system: kainate or maximal electric shock; conditions: kainate (24) or maximal electric shock (27); cited from earlier work

Chain of σ1 receptors (Q99720 whole entry): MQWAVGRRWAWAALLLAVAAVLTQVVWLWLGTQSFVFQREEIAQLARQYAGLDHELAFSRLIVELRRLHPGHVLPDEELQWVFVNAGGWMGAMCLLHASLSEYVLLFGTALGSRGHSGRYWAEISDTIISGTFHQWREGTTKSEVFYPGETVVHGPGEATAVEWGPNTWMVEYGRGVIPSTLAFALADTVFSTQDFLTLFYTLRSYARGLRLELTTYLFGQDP

SMILES: Cc1ccc2c(c1)[C@@]13CCCC[C@H]1[C@@H](C2)N(C)CC3 [DF, 3-methyl-17-methyl-morphinan]
- effect on LPS-induced reductions in striatal DA, DOPAC and HVA (LPS-treated mice [1]; 24 mg/kg pretreatment): did not alter LPS-induced reductions in DA, DOPAC and HVA levels
- Concentration DOPAC in the striatum (LPS-treated mice [1]; morphinan 12 (mg/kg) + LPS): 54 ± 7 ng/100 mg wet tissue
- Concentration HVA in the striatum (LPS-treated mice [1]; morphinan 12 (mg/kg) + LPS): 62 ± 8 ng/100 mg wet tissue
- Concentration DA in the striatum (LPS-treated mice [1]; morphinan 12 (mg/kg) + LPS, mean ± S.E.M., 8 animals): 635 ± 65 ng/100 mg wet tissue
- Concentration DOPAC in the striatum (LPS-treated mice [1]; morphinan 24 (mg/kg) + LPS): 59 ± 8 ng/100 mg wet tissue
- Concentration HVA in the striatum (LPS-treated mice [1]; morphinan 24 (mg/kg) + LPS): 63 ± 7 ng/100 mg wet tissue
- Concentration DA in the striatum (LPS-treated mice [1]; morphinan 24 (mg/kg) + LPS): 459 ± 58 ng/100 mg wet tissue
- effect on LPS-induced decrease in locomotor activity (LPS-treated mice [2]): neither AM nor DF were effective in attenuating locomotor hypoactivity
- effect on MA-induced reduction in locomotor activity (MA-treated mice [3]): significantly prevented MA-induced reduction in locomotor activity
- conditioned place preference (CPP) (C57 BL/6 mice [4]): almost no CPP effects
- effect on cocaine-induced FRA-IR in the striatum (cocaine-treated mice [5]): apparently attenuated
- effect on locomotor activity induced by low dose of cocaine (cocaine-treated mice [6]; cocaine 5 mg/kg i.p. x 7 days, morphinan 15 or 30 mg/kg (DF 20 mg/kg) i.p.): consistently attenuated locomotor activity induced by a low dose of cocaine
- effect on hyperactivity induced by high dose of cocaine (cocaine-treated mice [6]; cocaine 20 mg/kg i.p. x 7 days, morphinan 15 or 30 mg/kg i.p. 30 min before): not uniform
- effect on MA-induced reductions in striatal DA, DOPAC and HVA (MA-treated mice [7]; 24 mg/kg pretreatment): significantly protected
- Concentration DOPAC in the striatum (MA-treated mice [7]; morphinan 12 (mg/kg) + MA): 79 ± 11 ng/100 mg wet tissue
- Concentration HVA in the striatum (MA-treated mice [7]; morphinan 12 (mg/kg) + MA): 79 ± 7 ng/100 mg wet tissue
- Concentration DA in the striatum (MA-treated mice [7]; morphinan 12 (mg/kg) + MA, mean ± S.E.M., 8 animals): 603 ± 65 ng/100 mg wet tissue
- Concentration DOPAC in the striatum (MA-treated mice [7]; morphinan 24 (mg/kg) + MA): 94 ± 9^b ng/100 mg wet tissue
- Concentration HVA in the striatum (MA-treated mice [7]; morphinan 24 (mg/kg) + MA): 92 ± 10^b ng/100 mg wet tissue
- Concentration DA in the striatum (MA-treated mice [7]; morphinan 24 (mg/kg) + MA): 762 ± 81^b ng/100 mg wet tissue
- effect on MA-induced decrease in nigral TH-positive cells (MA-treated mice [8]): significantly attenuated the decrease in TH-positive cells
- locomotor pattern (tracings) (C57 BL/6 mice [9]; 40 mg/kg i.p. (PCP 5 mg/kg), FIG. 3): did not produce significant marginal activity
- marginal activity (circling behaviour; absolute turn angular) (C57 BL/6 mice [9]; 20 or 40 mg/kg i.p./day x 7 (PCP 2.5 or 5 mg/kg), 3-min period, vs saline): did not significantly affect marginal activity
- locomotor activity (total distance moved) (C57 BL/6 mice [9]; 20 or 40 mg/kg i.p./day x 7 days, 30 min after final treatment, vs saline): comparable to that with saline
- effect on MA-induced hyperlocomotion (MA-treated mice [10]): consistently effective in attenuating hyperlocomotion induced by MA
- effect on MA-induced FRA-IR in the striatum (MA-treated mice [11]): apparently attenuated
- effect on MPTP-induced reduction in locomotor activity (MPTP-treated mice [12]): neither AM nor DF affected significantly the locomotor hypoactivity
- affinity for σ1 receptors (σ1 receptors): high affinity ligands
- effect on MA-induced hyperthermia (rectal temperature) (MA-treated mice [13]): attenuated by all morphinans used in this study
- affinity for NMDA receptor associated PCP sites [14]: very low affinities
- effect on MPTP-induced reductions in striatal DA, DOPAC and HVA (MPTP-treated mice [15]; 24 mg/kg pretreatment): did not alter reductions in DA, DOPAC and HVA
- Concentration DOPAC in the striatum (MPTP-treated mice [15]; morphinan 12 (mg/kg) + MPTP): 44 ± 6 ng/100 mg wet tissue
- Concentration HVA in the striatum (MPTP-treated mice [15]; morphinan 12 (mg/kg) + MPTP): 62 ± 7 ng/100 mg wet tissue
- Concentration DA in the striatum (MPTP-treated mice [15]; morphinan 12 (mg/kg) + MPTP): 403 ± 55 ng/100 mg wet tissue
- Concentration DOPAC in the striatum (MPTP-treated mice [15]; morphinan 24 (mg/kg) + MPTP): 52 ± 7 ng/100 mg wet tissue
- Concentration HVA in the striatum (MPTP-treated mice [15]; morphinan 24 (mg/kg) + MPTP): 68 ± 6 ng/100 mg wet tissue
- Concentration DA in the striatum (MPTP-treated mice [15]; morphinan 24 (mg/kg) + MPTP): 397 ± 55 ng/100 mg wet tissue
- effect on MA-induced behavioural sensitization (MA-treated mice [16]): significantly reduced
- anticonvulsant effect [17]: exhibited anticonvulsant effects
